Structures can show the parent of a compound that is named as a salt. Where two headings read alike, the source gives them in different places.
Legend:
[1] = biological target: His-GST-TVMV-hRIPK1(1-324) (Homo sapiens (Human), UniProt Q13546); experiment: RIPK1 HTRF Binding Assay; settings: HTRF binding, 1 h at rt; read-out: RIPK1 (IC50)
Method in brief: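 HTRF probe-displacement binding: 1 nM His-GST-TVMV-hRIPK1(1-324) (baculovirus construct), 90.6 nM probe, 0.2 nM anti-GST-Tb in 20 mM HEPES, 10 mM MgCl2, 0.015% Brij-35, 4 mM DTT, 0.05 mg/mL BSA. Incubated 1 h at rt; FRET 520/495 nm ratio, inhibition relative to DMSO-only wells.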

[2] = test system: MLKL phosphorylation in HT29-L23 human colorectal adenocarcinoma cells; experiment: MLKL Phosphorylation High-Content Assay; assay type: cell-based; settings: 6 h, necroptosis induced with TNFα, SMAC mimetic and Z-VAD, read-out: pMLKL (IC50)
Method in brief: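 HT29-L23 cells pretreated 30 min at 37 °C with compound (6.25 to 0.106 μM final), then necroptosis induced with TNFα 35 ng/mL, SMAC mimetic 700 nM and Z-VAD 140 nM for 6 h. Fixed cells immunostained for MLKL pS358 and imaged; IC50 and Ymax from 4-parameter logistic fit.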

His-GST-TVMV-hRIPK1(1-324), sequence (Q13546 1-324): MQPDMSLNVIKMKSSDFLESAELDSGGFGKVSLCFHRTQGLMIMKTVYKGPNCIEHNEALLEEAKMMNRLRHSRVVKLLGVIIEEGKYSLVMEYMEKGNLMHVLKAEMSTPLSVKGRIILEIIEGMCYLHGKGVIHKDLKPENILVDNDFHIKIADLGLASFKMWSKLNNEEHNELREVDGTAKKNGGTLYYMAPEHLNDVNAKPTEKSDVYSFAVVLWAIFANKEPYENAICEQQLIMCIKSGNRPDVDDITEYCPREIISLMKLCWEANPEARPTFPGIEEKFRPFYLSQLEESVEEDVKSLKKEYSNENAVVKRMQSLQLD

COc1ncc(-c2ccc3nc(NC(C)=O)cn3n2)cc1C(=O)NCc1cc(OCC2CC2)ccc1F [Example 149, N-{[5-(cyclopropylmethoxy)-2-fluorophenyl]methyl}-5-{2-acetamidoimidazo[1,2-b]pyridazin-6-yl}-2-methoxypyridine-3-carboxamide]
IC50 [1]: 16 nM
IC50 ([2]; Homo sapiens): 74 nM

COc1ncc(-c2ccc3nc(NC(C)=O)cn3n2)cc1C(=O)NCc1c(F)cc(F)cc1OCC1CC1 [Example 150, N-{[2-(cyclopropylmethoxy)-4,6-difluorophenyl]methyl}-5-{2-acetamidoimidazo[1,2-b]pyridazin-6-yl}-2-methoxypyridine-3-carboxamide]
IC50 [1]: 18 nM
IC50 ([2]; Homo sapiens): 24 nM

COc1ncc(-c2ccc3nc(NC(C)=O)cn3n2)cc1C(=O)NCc1cccc(F)c1OCC1CC1 [Example 151, N-{[2-(cyclopropylmethoxy)-3-fluorophenyl]methyl}-5-{2-acetamidoimidazo[1,2-b]pyridazin-6-yl}-2-methoxypyridine-3-carboxamide, TFA]
IC50 [1]: 8 nM
IC50 [2]: 6 nM

COc1ncc(-c2ccc3nc(NC(C)=O)cn3n2)cc1C(=O)NCc1ccc(F)cc1OC1CCOCC1 [Example 152, 5-{2-acetamidoimidazo[1,2-b]pyridazin-6-yl}-N-{[4-fluoro-2-(oxan-4-yloxy)phenyl]methyl}-2-methoxypyridine-3-carboxamide]
IC50 [1]: 49 nM
IC50 ([2]; Homo sapiens): 69 nM

[2H]C([2H])(NC(=O)c1cc(-c2ccc3nc(NC(C)=O)cn3n2)cnc1OC)c1cc(F)cc(F)c1OC1CCOCC1 [Example 153, 5-(2-acetamidoimidazo[1,2-b]pyridazin-6-yl)-N-((3,5-difluoro-2-((tetrahydro-2H-pyran-4-yl)oxy)phenyl)methyl-d2)-2-methoxynicotinamide]
IC50 [1]: 1 nM
IC50 ([2]; Homo sapiens): 1 nM

COc1ncc(-c2ccc3nc(NC(C)=O)cn3n2)cc1C(=O)NCc1cc(OC(F)(F)F)ccc1F [Example 154, 5-{2-acetamidoimidazo[1,2-b]pyridazin-6-yl}-N-{[2-fluoro-5-(trifluoromethoxy)phenyl]methyl}-2-methoxypyridine-3-carboxamide]
IC50 [1]: 13 nM
IC50 ([2]; Homo sapiens): 15 nM

COc1ncc(-c2ccc3nc(NC(C)=O)cn3n2)cc1C(=O)NCc1ccccc1OCC1CCC1 [Example 155, N-{[2-(cyclobutylmethoxy)phenyl]methyl}-5-{2-acetamidoimidazo[1,2-b]pyridazin-6-yl}-2-methoxypyridine-3-carboxamide]
IC50 [1]: 2 nM
IC50 ([2]; Homo sapiens): 6 nM

COc1ncc(-c2ccc3nc(NC(C)=O)cn3n2)cc1C(=O)NCc1c(F)cccc1OC1CCCC1 [Example 156, N-{[2-(cyclopentyloxy)-6-fluorophenyl]methyl}-5-{2-acetamidoimidazo[1,2-b]pyridazin-6-yl}-2-methoxypyridine-3-carboxamide]
IC50 [1]: 2 nM
IC50 ([2]; Homo sapiens): 3 nM

COc1ncc(-c2ccc3nc(NC(C)=O)cn3n2)cc1C(=O)NCc1ccccc1OC(F)(F)F [Example 157, 5-{2-acetamidoimidazo[1,2-b]pyridazin-6-yl}-2-methoxy-N-{[2-(trifluoro-methoxy)phenyl]methyl}pyridine-3-carboxamide]
IC50 [1]: 17 nM
IC50 ([2]; Homo sapiens): 93 nM

COc1ncc(-c2ccc3nc(NC(C)=O)cn3n2)cc1C(=O)NCc1ccccc1S(=O)(=O)C1CC1 [Example 158, N-{[2-(cyclopropanesulfonyl)phenyl]methyl}-5-{2-acetamidoimidazo[1,2-b]pyridazin-6-yl}-2-methoxypyridine-3-carboxamide]
IC50 [1]: 31 nM
IC50 ([2]; Homo sapiens): 336 nM

COc1ncc(-c2ccc3nc(NC(C)=O)cn3n2)cc1C(=O)NCc1ccccc1OC1CCCC1 [Example 159, N-{[2-(cyclopentyloxy)phenyl]methyl}-5-{2-acetamidoimidazo[1,2-b]pyridazin-6-yl}-2-methoxypyridine-3-carboxamide]
IC50 [1]: 3 nM
IC50 ([2]; Homo sapiens): 6 nM

Source: patent US11440913B2, “Aminoimidazopyridazines as kinase inhibitors” (BRISTOL-MYERS SQUIBB COMPANY, priority 2017, dated 2022)
